Experimental data: patent publication US7183276B2, “Azole compounds” (Takeda Pharmaceutical Company Limited, priority 2002, dated 2007)

Compound Cc1ccc(Sc2nc(-c3ccc(Cl)cc3)c(CCC(N)=O)o2)cc1 [Example 10, 3-[4-(4-chlorophenyl)-2-[(4-methylphenyl)sulfanyl]-5-oxazolyl]propionamide] has a melting point of 155 to 156 °C.
Compound CCOP(=O)(Cc1ccc(NC(=O)CCCc2oc(-n3cnc4ccccc43)nc2-c2ccc(Cl)cc2)c(C)c1)OCC has a melting point of 118 to 119 °C.
For O=C(O)Cc1ccc(NC(=O)CCc2oc(-n3cnc4ccccc43)nc2-c2ccc(Cl)cc2)cc1 [Example 90, 4-({3-[2-(1H-benzimidazol-1-yl)-4-(4-chlorophenyl)-5-oxazolyl]propanoyl)amino}phenylacetic acid], the melting point was 247 to 248 °C.
Compound O=C(CCc1oc(-n2cnc3ccccc32)nc1-c1ccc(Cl)cc1)Nc1ccccc1 [Example 120, 3-[2-(1H-benzimidazol-1-yl)-4-(4-chlorophenyl)-5-oxazolyl]-N-phenylpropionamide] has a melting point of 226 to 227 °C.
For CCOP(=O)(Cc1ccc(NC(=O)CCc2oc(C3CCCCC3)nc2-c2ccc(Cl)cc2)cc1)OCC, the melting point was 133 to 134 °C.
For CCOP(=O)(Cc1ccc(NC(=O)CCc2oc(-c3ccc(OC)cc3)nc2-c2ccc(Cl)cc2)cc1)OCC, the melting point was 141 to 142 °C.
For CCOP(=O)(CCCNC(=O)CCc1oc(-n2cnc3ccccc32)nc1-c1ccc(Cl)cc1)OCC, the melting point was 130 to 131 °C.
Compound CCOP(=O)(Cc1ccc(NC(=O)CCCc2oc(N3CCN(n4c(=O)[nH]c5ccccc54)CC3)nc2-c2ccc(Cl)cc2)cc1)OCC has a melting point of 205 to 209 °C.
Compound O=C(CCc1oc(-n2cnc3ccccc32)nc1-c1ccc(Cl)cc1)N1CCC(O)CC1 [Example 192, 1-{3-[2-(1H-benzimidazol-1-yl)-4-(4-chlorophenyl)-5-oxazolyl]propanoyl}-4-piperidinol] has a melting point of 182 to 183 °C.
Work on CCCc1nc(-c2ccc(Cl)cc2)c(CCC(=O)Nc2ccc(CP(=O)(OCC)OCC)cc2)o1 yielded a melting point of 108 to 109 °C.
O=C(CCc1oc(-n2cnc3ccccc32)nc1-c1ccc(Cl)cc1)NCc1ccc(C(F)(F)F)cc1 [Example 138, 3-[2-(1H-benzimidazol-1-yl)-4-(4-chlorophenyl)-5-oxazolyl]-N-[4-(trifluoromethyl)benzyl]propionamide] gave a melting point of 194 to 195 °C.
In the case of CN(CCS(C)(=O)=O)C(=O)CCc1oc(-n2cnc3ccccc32)nc1-c1ccc(Cl)cc1 [Example 303, 3-[2-(1H-benzoimidazol-1-yl)-4-(4-chlorophenyl)-5-oxazolyl]-N-[2-(methylsulfonyl)ethyl]-N-methylpropanamide], the melting point is reported as 141 to 142 °C.
Work on O=C(CCc1oc(-n2cnc3ccccc32)nc1-c1ccc(Cl)cc1)Nc1ccc(CN2CCCCC2)cc1 [Example 88, 3-[2-(1H-benzimidazol-1-yl)-4-(4-chlorophenyl)-5-oxazolyl]-N-{4-[(1-piperidinyl)methyl]phenyl}propionamide] yielded a melting point of 194 to 195 °C.
O=C(CCc1oc(-n2cnc3ccccc32)nc1-c1ccc(Cl)cc1)NCCc1ccccc1 [Example 136, 3-[2-(1H-benzimidazol-1-yl)-4-(4-chlorophenyl)-5-oxazolyl]-N-(2-phenylethyl)propionamide] showed a melting point of 164 to 165 °C.
With CCOP(=O)(OCC)c1ccc(NC(=O)CCCc2oc(-n3cnc4ccccc43)nc2-c2ccc(Cl)cc2)cc1 the melting point was 162 to 163 °C.
Work on NC(=O)CCc1oc(-n2cnc3ccccc32)nc1-c1ccc(Cl)cc1 [Example 8, 3-[2-(1H-benzimidazol-1-yl)-4-(4-chlorophenyl)-5-oxazolyl]propionamide] yielded a melting point of 265 to 266 °C.
Cc1ccc(CNC(=O)CCc2oc(-c3ccccc3)nc2-c2ccc(Cl)cc2)cc1 [Example 166, 3-[4-(4-chlorophenyl)-2-phenyl-5-oxazolyl]-N-(4-methylbenzyl)propionamide] gave a melting point of 193 to 194 °C.
In the case of NC(=O)c1ccc(NC(=O)/C=C/c2oc(-c3ccccc3)nc2-c2ccc(Cl)cc2)cc1 [Example 68, 4-({(2E)-3-[4-(4-chlorophenyl)-2-phenyl-5-oxazolyl]propenoyl}amino)benzamide], the melting point is reported as 274 to 275 °C.
Work on CCOP(=O)(Cc1ccc(NC(=O)CCc2oc(-n3cnc4ccccc43)nc2-c2ccccc2)cc1)OCC yielded a melting point of 148 to 149 °C.
In the case of O=C(CCc1oc(-n2cnc3ccccc32)nc1-c1ccc(Cl)cc1)NCc1cccc(-c2ccccc2)c1 [Example 177, 3-[2-(1H-benzimidazol-1-yl)-4-(4-chlorophenyl)-5-oxazolyl]-N-(3-phenylbenzyl)propionamide], the melting point is reported as 201 to 202 °C.
In the case of N#CCc1ccc(NC(=O)CCc2oc(-c3ccccc3)nc2-c2ccc(Cl)cc2)cc1 [Example 105, 3-[4-(4-chlorophenyl)-2-phenyl-5-oxazolyl]-N-[4-(cyanomethyl)phenyl]propionamide], the melting point is reported as 212 to 214 °C.
In the case of CCOP(=O)(Cc1ccc(NC(=O)CCc2sc(NC(=O)c3ccccn3)nc2-c2ccc(Cl)cc2)cc1)OCC, the melting point is reported as 184 to 185 °C.
With CS(=O)(=O)CCNC(=O)CCc1oc(-n2cnc3ccccc32)nc1-c1ccc(Cl)cc1 [Example 302, 3-[2-(1H-benzoimidazol-1-yl)-4-(4-chlorophenyl)-5-oxazolyl]-N-[2-(methylsulfonyl)ethyl]propanamide] the melting point was 194 to 195 °C.
CCOP(=O)(Cc1ccc(NC(=O)CCc2oc(NCc3ccccc3)nc2-c2ccc(Cl)cc2)cc1)OCC showed a melting point of 156 to 157 °C.
In the case of CCOP(=O)(OCC)c1ccc(NC(=O)CCc2oc(-n3cnc4ccccc43)nc2-c2ccc(Cl)cc2)cc1, the melting point is reported as 249 to 250 °C.
Work on O=C(CCc1oc(-n2cnc3ccccc32)nc1-c1ccc(Cl)cc1)Nc1ccccc1CO [Example 109, 3-[2-(1H-benzimidazol-1-yl)-4-(4-chlorophenyl)-5-oxazolyl]-N-[2-(hydroxymethyl)phenyl]propionamide] yielded a melting point of 159 to 160 °C.
In the case of Cc1cc(C)n(-c2nc(-c3ccc(Cl)cc3)c(CCC(=O)N3CCN(CC4CCN(C)CC4)CC3)o2)n1 [Example 347, 1-{3-[4-(4-chlorophenyl)-2-(3,5-dimethyl-1H-pyrazol-1-yl)-5-oxazolyl]propanoyl}-4-[(1-methyl-4-piperidinyl)methyl]piperazine], the melting point is reported as 126 to 127 °C.
In the case of COC(=O)Cc1csc(NC(=O)CCc2oc(-n3cnc4ccccc43)nc2-c2ccc(Cl)cc2)n1 [Example 129, 3-[2-(1H-benzimidazol-1-yl)-4-(4-chlorophenyl)-5-oxazolyl]-N-{4-[(methoxycarbonyl)methyl]-2-thiazolyl}propionamide], the melting point is reported as 233 to 234 °C.
O=C(CCc1oc(-n2cnc3ccccc32)nc1-c1ccc(Cl)cc1)N1CCC(CO)CC1 [Example 305, (1-{3-[2-(1H-benzoimidazol-1-yl)-4-(4-chlorophenyl)-5-oxazolyl]propanoyl}-4-piperidinyl)methanol] gave a melting point of 101 to 102 °C.
Work on NC(=O)CCc1oc(Cc2ccccc2)nc1-c1ccc(Cl)cc1 [Example 18, 3-[2-benzyl-4-(4-chlorophenyl)-5-oxazolyl]propionamide] yielded a melting point of 169 to 170 °C.
CCOP(=O)(Cc1ccc(NC(=O)CCc2oc(-n3cnc4ccccc43)nc2-c2ccc(F)cc2)cc1)OCC showed a melting point of 95 to 96 °C.
Work on NC(=O)CCc1sc(-c2ccccc2)nc1-c1ccc(Cl)cc1 [Example 46, 3-[4-(4-chlorophenyl)-2-phenyl-5-thiazolyl]propionamide] yielded a melting point of 175 to 176 °C.
Nc1nc(-c2ccc(Cl)cc2)c(CCC(=O)N2CCS(=O)(=O)CC2)s1 [Example 227B, 4-{3-[2-amino-4-(4-chlorophenyl)-5-thiazolyl]propanoyl}thiomorpholine-1,1-dioxide] showed a melting point of 220 to 222 °C.
Cc1ccc(CNC(=O)CCCc2oc(-n3cnc4ccccc43)nc2-c2ccc(Cl)cc2)cc1 [Example 196, 4-[2-(1H-benzimidazol-1-yl)-4-(4-chlorophenyl)-5-oxazolyl]-N-(4-methylbenzyl)butanamide] gave a melting point of 190 to 191 °C.
With CCOP(=O)(Cc1ccc(NC(=O)CCc2ocnc2-c2ccc(Cl)cc2)cc1)OCC the melting point was 130 to 131 °C.
Compound O=C(CCc1oc(-c2ccccc2)nc1-c1ccc(Cl)cc1)Nc1ccc(C(=O)O)cc1 [Example 63, 4-({3-[4-(4-chlorophenyl)-2-phenyl-5-oxazolyl]propanoyl}amino)benzoic acid] has a melting point of 243 to 244 °C.
In the case of CCOC(=O)Cc1ccc(NC(=O)CCc2oc(-n3cnc4ccccc43)nc2-c2ccc(Cl)cc2)cc1 [Example 76, 3-[2-(1H-benzimidazol-1-yl)-4-(4-chlorophenyl)-5-oxazolyl]-N-[4-(ethoxycarbonylmethyl)phenyl]propionamide], the melting point is reported as 181 to 182 °C.
For O=C(CCc1oc(-n2cnc3ccccc32)nc1-c1ccc(Cl)cc1)N1CCCC(O)C1 (centres unmarked) [Example 300, 1-{3-[2-(1H-benzoimidazol-1-yl)-4-(4-chlorophenyl)-5-oxazolyl]propanoyl}-3-piperidinol], the melting point was 104 to 105 °C.
COc1cc(OC)c(CNC(=O)CCc2oc(-n3cnc4ccccc43)nc2-c2ccc(Cl)cc2)c(OC)c1 [Example 161, 3-[2-(1H-benzimidazol-1-yl)-4-(4-chlorophenyl)-5-oxazolyl]-N-(2,4,6-trimethoxybenzyl)propionamide] gave a melting point of 206 to 208 °C.
O=C(CCCc1oc(-c2ccccc2)nc1-c1ccc(Cl)cc1)N1CCN(c2ccccc2)CC1 [Example 51, 1-{4-[4-(4-chlorophenyl)-2-phenyl-5-oxazolyl]butanoyl}-4-phenylpiperazine] showed a melting point of 104 to 105 °C.
In the case of CCOP(=O)(Cc1ccc(NC(=O)CCCCCc2sc(-n3cnc4ccccc43)nc2-c2ccc(Cl)cc2)cc1)OCC, the melting point is reported as 149 to 151 °C.
In the case of O=C(/C=C/c1oc(-c2ccccc2)nc1-c1ccc(Cl)cc1)Nc1ccc(C(=O)O)cc1 [Example 65, 4-({(2E)-3-[4-(4-chlorophenyl)-2-phenyl-5-oxazolyl]propenoyl}amino)benzoic acid], the melting point is reported as 275 to 276 °C.
Compound CC(C)(C)c1ccc(NC(=O)CCc2oc(-n3cnc4ccccc43)nc2-c2ccc(Cl)cc2)cc1 [Example 117, 3-[2-(1H-benzimidazol-1-yl)-4-(4-chlorophenyl)-5-oxazolyl]-N-(4-tert-butylphenyl)propionamide] has a melting point of 219 to 220 °C.
In the case of O=C(CCc1oc(-n2cnc3ccccc32)nc1-c1ccc(Cl)cc1)Nc1ccc(Cl)cc1 [Example 79, 3-[2-(1H-benzimidazol-1-yl)-4-(4-chlorophenyl)-5-oxazolyl]-N-(4-chlorophenyl)propionamide], the melting point is reported as 248 to 249 °C.
